According to PMC11672400, “Synthesis, Spectroscopic Characterization, Structural Analysis, and Evaluation of Anti-Tumor, Antimicrobial, and Antibiofilm Activities of Halogenoaminopyrazoles Derivatives” (Antibiotics, 2024):
Values after ≈ are worked out from the molar mass of the structure shown. Where two headings read alike, the source gives them in different places.

Legend:
[1] = test system: NCTC (clone 929) mouse fibroblast cells; experiment: MTT cell viability / cytotoxicity on normal fibroblasts; type: cell-based; conditions: Mus musculus, NCTC clone 929; NCTC normal fibroblasts, MTT, 48 h
Text: (§1) Merck chemicals were utilized.
(§2) Untreated cells were used as control, considered 100% viable cells.

[2] = as above; type: cell-based, mouse; conditions: mouse
Text: as §1, §2

[3] = test system: Escherichia coli ATCC25922; experiment: Qualitative evaluation of antimicrobial activity (inhibition zone, spot on agar); type: cell-based; set-up: key: (+) inhibited bacterial growth; (-) did not inhibit bacterial growth; conditions: 0.06 g/2 mL DMSO, 5 µL spot
Method: (§3) For testing the antimicrobial/antibiofilm activity, the concentration of the studied compounds was identical to 0.06 g/2 mL DMSO. 0.5 Standard McFarland suspension was used, which was inoculated onto Mueller Hinton agar plates, (Remel, Lenexa, KS, USA), 5 µL of each compound was spotted and incubated overnight at 37 °C. Antimicrobial activity was observed as zones of inhibition formed around the spot.

[4] = test system: Staphylococcus aureus ATCC25923; experiment: as above; type: cell-based; set-up: key: (+) inhibited bacterial growth; (-) did not inhibit bacterial growth; conditions: 0.06 g/2 mL DMSO, 5 µL spot
Method: as §3

[5] = test system: Enterococcus faecalis ATCC29212; experiment: as above; type: cell-based; set-up: key: (+) inhibited bacterial growth; (-) did not inhibit bacterial growth; conditions: 0.06 g/2 mL DMSO, 5 µL spot
Method: as §3

[6] = test system: Pseudomonas aeruginosa ATCC27853; experiment: as above; type: cell-based; set-up: key: (+) inhibited bacterial growth; (-) did not inhibit bacterial growth; conditions: 0.06 g/2 mL DMSO, 5 µL spot
Method: as §3

[7] = test system: Escherichia coli ATCC25922; experiment: MIC by serial microdilution in liquid medium; type: cell-based; conditions: 24 h, 37 °C; for MIC: Escherichia coli, ATCC25922, read-out: Minimum inhibitory concentration, Escherichia coli ATCC25922
Method: (§4) The minimum inhibitory concentrations (MIC) were determined by the serial microdilution method in a liquid medium (Tryptone Soy Broth), on 96-well plates. Serial binary dilutions of the compound stock solution (10 mg/mL in DMSO) were carried out in 90 µL of culture medium and 10 µL of 10^6 CFU/mL (Colony Forming Units) microbial suspension. Each test included a positive control (wells with culture medium and microbial suspension) and a negative control for medium sterility. After incubation at 37 °C for 24 h the plates were visually examined, and optical density was measured at 620 nm. […] The MIC value (µg/mL) for the chemical compound was determined by the concentration in the final well without bacterial growth. All experiments were performed in triplicate.

[8] = test system: Staphylococcus aureus ATCC25923; experiment: MIC by serial microdilution in liquid medium; type: cell-based; conditions: 24 h, 37 °C; for MIC: Staphylococcus aureus, ATCC25923, read-out: Minimum inhibitory concentration, Staphylococcus aureus ATCC25923
Method: as §4

[9] = test system: Enterococcus faecalis ATCC29212; experiment: MIC by serial microdilution in liquid medium; type: cell-based; conditions: 24 h, 37 °C; for MIC: Enterococcus faecalis, ATCC29212, read-out: Minimum inhibitory concentration, Enterococcus faecalis ATCC29212
Method: as §4

[10] = test system: Pseudomonas aeruginosa ATCC27853; experiment: MIC by serial microdilution in liquid medium; type: cell-based; conditions: 24 h, 37 °C; for MIC: Pseudomonas aeruginosa, ATCC27853, read-out: Minimum inhibitory concentration, Pseudomonas aeruginosa ATCC27853
Method: as §4

[11] = test system: Staphylococcus aureus ATCC25923; experiment: Antibiofilm assay (crystal violet), MBIC; type: cell-based; conditions: 24 h, 37 °C; for minimal effective concentration: Staphylococcus aureus, ATCC25923, read-out: Minimum biofilm inhibition concentration (MBIC), Staphylococcus aureus ATCC25923
Method: (§5) Microorganisms were grown in 96-well plates filled with nutrient broth along with test substances, followed by incubation at 37 °C for 24 h. Plates were cleaned and rinsed thrice using SPW solution (sterile physiological water). After that, the attached cells were treated with 110 μL of methanol for 5 min, and then the methanol was removed by turning it upside down. […] Once stained, the solution was removed, and the plates were washed with running tap water. […] The antimicrobial/antibiofilm activity of the compounds was evaluated against two antibiotics, commercial formulations of metronidazole and nitrofurantoin.

[12] = test system: Pseudomonas aeruginosa ATCC27853; experiment: Antibiofilm assay (crystal violet), MBIC; type: cell-based; conditions: 37 °C; for Minimum biofilm inhibition concentration (MBIC), Pseudomonas aeruginosa ATCC27853: 24 h; for minimal effective concentration: Pseudomonas aeruginosa, ATCC27853, 24 h, read-out: Minimum biofilm inhibition concentration (MBIC), Pseudomonas aeruginosa ATCC27853
Method: as §5

[13] = test system: HEp-2 epithelial tumor cells; experiment: MTT cell viability / anti-tumor activity; conditions: for viability at 3.1 µg/mL / viability at 6.25 µg/mL / viability at 12.5 µg/mL / viability at 25 µg/mL / viability at 50 µg/mL / IC50: Homo sapiens; for viability at 3.1 µg/mL / viability at 6.25 µg/mL / viability at 12.5 µg/mL / viability at 25 µg/mL / viability at 50 µg/mL: read-out: Cell viability on Hep2 cells (%); for IC50: read-out: IC50 µg/mL on HEp-2 Cells 48 h, HEp-2 epithelial tumor cells, MTT, 48 h
[14] = test system: Escherichia coli ATCC25922; experiment: Antibiofilm assay (crystal violet), MBIC; type: cell-based; conditions: 37 °C; for minimal effective concentration: Escherichia coli, ATCC25922, 24 h, read-out: Minimum biofilm inhibition concentration (MBIC), Escherichia coli ATCC25922
Method: as §5

[15] = test system: Enterococcus faecalis ATCC29212; experiment: Antibiofilm assay (crystal violet), MBIC; type: cell-based; conditions: Enterococcus faecalis, ATCC29212, 24 h, 37 °C, read-out: Minimum biofilm inhibition concentration (MBIC), Enterococcus faecalis ATCC29212
Method: as §5

[16] = NCTC clone 929 (L929) mouse fibroblast cells
[17] = read-out: Cell viability on NCTC cells (%)

Compound	IC50 [1] [µg/mL]	Qualitative antimicrobial activity, Escherichia coli ATCC25922 [3]	Qualitative antimicrobial activity, Staphylococcus aureus ATCC25923 [4]	Qualitative antimicrobial activity, Enterococcus faecalis ATCC29212 [5]	Qualitative antimicrobial activity, Pseudomonas aeruginosa ATCC27853 [6]	MIC [7] [µg/mL]	MIC [8] [µg/mL]	MIC [9] [µg/mL]	MIC [10] [µg/mL]	minimal effective concentration [11] [µg/mL]	minimal effective concentration [12] [µg/mL]	viability at 3.1 µg/mL ([13]; HEp-2, 24 h) [%]	viability at 6.25 µg/mL ([13]; HEp-2, 24 h) [%]	viability at 12.5 µg/mL ([13]; HEp-2, 24 h) [%]	viability at 25 µg/mL ([13]; HEp-2, 24 h) [%]	viability at 50 µg/mL ([13]; HEp-2, 24 h) [%]	viability at 3.1 µg/mL ([13]; HEp-2, 48 h) [%]	viability at 6.25 µg/mL ([13]; HEp-2, 48 h) [%]	viability at 12.5 µg/mL ([13]; HEp-2, 48 h) [%]	viability at 25 µg/mL ([13]; HEp-2, 48 h) [%]	also measured
Cc1nn(CNc2ccc(Cl)cc2)c(C)c1[N+](=O)[O-] [4b, N-[(3,5-dimetyl-4-nitro-1H-pyrazol-1-yl)-methyl]-4-chloroaniline]	36.1 ± 1.23 (≈ 129 µM)	+	+	+	+	460 (≈ 1640 µM)	460 (≈ 1640 µM)	460 (≈ 1640 µM)	460 (≈ 1640 µM)	460	460	116 ± 2.48	105 ± 2.91	100 ± 2.49	88.8 ± 1.65	65.6 ± 2.78	112.6 ± 1.03	104 ± 1.08	98 ± 1.42	79.5 ± 1.49	viability at 24 h, 3.1 µg/mL [2, 16]: 100 ± 1.63%; viability at 48 h, 3.1 µg/mL [2, 16]: 95.08 ± 0.82%; viability at 24 h, 6.25 µg/mL [2, 16]: 101 ± 3.31%; viability at 48 h, 6.25 µg/mL [2, 16]: 93 ± 1.35%; viability at 24 h, 12.5 µg/mL [2, 16]: 98.6 ± 2.62%; viability at 48 h, 12.5 µg/mL [2, 16]: 89.7 ± 3.15%; viability at 24 h, 25 µg/mL [2, 16]: 96.3 ± 2.22%; viability at 48 h, 25 µg/mL [2, 16]: 61.9 ± 1.38%; viability at 24 h, 50 µg/mL [2, 16]: 64.9 ± 0.94%; viability at 48 h, 50 µg/mL [2, 16]: 31.6 ± 1.27%; Minimum inhibitory concentration, Escherichia coli ATCC25922 [7]: 460 ± 0.05 µg/mL (≈ 1640 µM); Minimum inhibitory concentration, Staphylococcus aureus ATCC25923 [8]: 460 ± 0.02 µg/mL (≈ 1640 µM); Minimum inhibitory concentration, Enterococcus faecalis ATCC29212 [9]: 460 ± 0.02 µg/mL (≈ 1640 µM); Minimum inhibitory concentration, Pseudomonas aeruginosa ATCC27853 [10]: 460 ± 0.01 µg/mL (≈ 1640 µM); Minimum biofilm inhibition concentration (MBIC), Staphylococcus aureus ATCC25923 [11]: 460 ± 0.01 µg/mL; Minimum biofilm inhibition concentration (MBIC), Pseudomonas aeruginosa ATCC27853 [12]: 460 ± 0.02 µg/mL; viability at 50 µg/mL ([13]; HEp-2, 48 h): 46.8 ± 3.35%; IC50 ([13]; HEp-2, 48 h): 47.3 ± 3.38 µg/mL (≈ 169 µM); melting point: 99 to 100 °C
Cc1nn(CN(Cn2nc(C)c([N+](=O)[O-])c2C)c2ccc(Cl)cc2)c(C)c1[N+](=O)[O-] [5b, N,N-bis-[(3,5-dimetyl-4-nitro-1H-pyrazol-1-yl)-methyl]-4-chloroaniline]	29.8 ± 0.32 (≈ 68.7 µM)	+	+	+	+	460 (≈ 1060 µM)	460 (≈ 1060 µM)	460 ± 0.54 (≈ 1060 µM)	460 ± 0.58 (≈ 1060 µM)	460	460	105 ± 1.52	104 ± 2.25	102 ± 3.76	90.8 ± 2.84	65.3 ± 2.02	110 ± 1.25	94.7 ± 3.8	87.1 ± 0.92	74.8 ± 0.33	viability at 24 h, 3.1 µg/mL [2, 17]: 99.1 ± 3.42%; viability at 48 h, 3.1 µg/mL [2, 17]: 100 ± 2.53%; viability at 24 h, 6.25 µg/mL [2, 17]: 103 ± 3.06%; viability at 48 h, 6.25 µg/mL [2, 17]: 94.9 ± 2.14%; viability at 24 h, 12.5 µg/mL [2, 17]: 98.8 ± 3.47%; viability at 48 h, 12.5 µg/mL [2, 17]: 84 ± 3.77%; viability at 24 h, 25 µg/mL [2, 17]: 70 ± 2.51%; viability at 48 h, 25 µg/mL [2, 17]: 55.2 ± 1.6%; viability at 24 h, 50 µg/mL [2, 17]: 48.6 ± 1.35%; viability at 48 h, 50 µg/mL [2, 17]: 28.1 ± 0.35%; Minimum inhibitory concentration, Escherichia coli ATCC25922 [7]: 460 ± 0.27 µg/mL (≈ 1060 µM); Minimum inhibitory concentration, Staphylococcus aureus ATCC25923 [8]: 460 ± 0.01 µg/mL (≈ 1060 µM); Minimum biofilm inhibition concentration (MBIC), Escherichia coli ATCC25922 ([14]; 24 h): 460 ± 0.03 µg/mL; minimal effective concentration [14]: 460 µg/mL; Minimum biofilm inhibition concentration (MBIC), Staphylococcus aureus ATCC25923 [11]: 460 ± 0.01 µg/mL; Minimum biofilm inhibition concentration (MBIC), Pseudomonas aeruginosa ATCC27853 [12]: 460 ± 0.51 µg/mL; IC50 µg/mL on HEp-2 Cells 48 h ([13]; HEp-2 epithelial tumor cells, MTT, 48 h): >50 µg/mL; viability at 50 µg/mL ([13]; HEp-2, 48 h): 54.6 ± 1.17%; IC50 ([13]; HEp-2, 48 h): 26.6 to 47.3 µg/mL (≈ 61.3 to 109 µM); melting point: 132 to 134 °C
Cc1nn(CN(Cn2nc(C)c([N+](=O)[O-])c2C)c2ccc(I)cc2)c(C)c1[N+](=O)[O-] [5d, N,N-bis-[(3,5-dimetyl-4-nitro-1H-pyrazol-1-yl)-methyl]-4-iodoaniline]	> 50	-	-	-	-	1870 ± 0.04 (≈ 3560 µM)	1870 ± 0.07 (≈ 3560 µM)	1870 ± 0.05 (≈ 3560 µM)	1870 ± 0.04 (≈ 3560 µM)	930 ± 0.15	930 ± 0.15	88.45 ± 0.28	89.15 ± 0.73	91.41 ± 0.69	89.86 ± 0.48	89.86 ± 0.16	96.17 ± 0.13	78.61 ± 0.67	61.51 ± 0.34	45.75 ± 0.33	viability at 24 h, 3.1 µg/mL [2, 17]: 103 ± 1.49%; viability at 48 h, 3.1 µg/mL [2, 17]: 93.58 ± 0.71%; viability at 24 h, 6.25 µg/mL [2, 17]: 108 ± 2.4%; viability at 48 h, 6.25 µg/mL [2, 17]: 103%; viability at 24 h, 12.5 µg/mL [2, 17]: 106 ± 2.05%; viability at 48 h, 12.5 µg/mL [2, 17]: 102 ± 3.03%; viability at 24 h, 25 µg/mL [2, 17]: 98.4 ± 3.87%; viability at 48 h, 25 µg/mL [2, 17]: 95.8 ± 2.12%; viability at 24 h, 50 µg/mL [2, 17]: 83 ± 2.9%; viability at 48 h, 50 µg/mL [2, 17]: 88.3 ± 1.55%; minimal effective concentration [14]: 1870 ± 0.15 µg/mL; minimal effective concentration [15]: 1870 ± 0.15 µg/mL; viability at 50 µg/mL ([13]; HEp-2, 48 h): 20.8%; IC50 ([13]; HEp-2, 48 h): 26.61 ± 0.11 µg/mL (≈ 50.7 µM)
